From US8227210B2, “Positive control proteins for glucose transporter proteins and processes for the generation of such positive control proteins” (East Tennessee State University Research Foundation, priority 2008, dated 2012)
Where “and” joins values, the source holds several entries; their conditions need not be identical. Identical values can stand only once. Entries after “also recorded” stand apart in the source; their conditions may differ.

What was measured:
[1] = tested on: SEQ ID NO. 12 (GLUT4) translocation in L6 myoblasts; test: Insulin-stimulated translocation of GLUT4 to PM fraction in L6 myoblasts and its inhibition by PI3-K inhibitor; format: cell-based, rat; conditions: L6 cells, 10 ng/mL insulin
Protocol: (§1) Fractionation of L6 muscle cells: L6 cells were obtained from ATCC and cultured in D.MEM medium with 10% fetal bovine serum with subculturing every three to five days. For the studies described below, cells were grown to near confluence in 100 mm dishes. Cells were harvested in 1 mL homogenization Buffer A containing 5 μL protease inhibitors using a rubber policeman. The remainder of the technique is the same as muscle microsamples. The yield of protein averaged 199±14 μg for PM and 419±22 μg for LDM. Immunoblot technique: Immunoblotting was performed essentially as previously described (11). In general, 10-20 μg protein from muscle homogenate or fractions was separated on a 10% polyacrylamide gel using the Laemmli system (12), transferred to a nitrocellulose membrane, subjected to blocking with 2.5% non-fat dry milk in phosphate-buffered saline, incubated with a validated dilution of one of the anti-GLUT antibodies above including 1.25% milk, and developed with the enhanced chemiluminescence reagent and X-ray film. Image analysis was performed on scanned film digital files using Quantity One version 4.5.2 software from Bio-Rad (Hercules, Calif.). The specificity of the antibodies employed for GLUT1 SEQ ID NO. […] After harvesting and fractionating the cells, samples from the fractions were subjected to immunoblotting and digital images were quantified by image analysis software. […]

[2] = Euglycemic insulin clamp: plasma insulin concentration and glucose infusion rate
Protocol: Euglycemic insulin clamp studies: Insulin infusion studies were performed essentially as previously described (8; 9) except no isotope or somatostatin were used in this study. Mter an overnight fast, subjects were maintained in quiet recumbency for two hours to minimize the effects of muscular activity on protein subcellular localization. After a baseline muscle biopsy, a constant insulin infusion was performed at 40 mU/m2/min for three hours. A second muscle biopsy was performed on the contralateral side in the last 10 minutes of the insulin infusion period.

[3] = tested on: SEQ ID NO. 16 (GLUT12) translocation in L6 myoblasts; test: Insulin-stimulated translocation of GLUT12 to PM fraction in L6 myoblasts and its inhibition by PI3-K inhibitor; format: cell-based, rat; conditions: L6 cells, 10 ng/mL insulin
Protocol: as §1

SEQ ID NO. 12 (GLUT4) [4] = conditions: cited from earlier work
SEQ ID NO. 12 (GLUT4) [5] = test: Euglycemic insulin clamp: GLUT4 in plasma membrane-enriched (PM) fraction of vastus lateralis biopsies, quantitative immunoblot; format: in vivo, human
Protocol: (§2) Muscle biopsies: Percutaneous needle biopsies of vastus lateralis were performed using a 5 mm Bergstrom-Stille needle under suction after an overnight fast and two hours of quiet recumbency as previously described (6). A 50-100 mg specimen was quickly blotted and the entire sample was frozen in liquid nitrogen for later analysis.
(§3) Fractionation of muscle microsamples: We have made minor modifications of our previously described techniques (10). Briefly, 50 mg muscle is removed from the −80° C. freezer and slowly thawed on ice. The muscle is homogenized in 1.0 ml Buffer A (250 mM sucrose, 20 mM HEPES, pH 7.4) with 5 μL protease cocktail (Cocktail Kit Pierce #78410) added. Initial homogenization is 30 seconds with a Pellet Pestle Motor (Kontes). The homogenate is passed through a BD Falcon 100 μm Cell Strainer and after adding 100 μL Buffer B (3M KCl, 250 roM sodium pyrophosphate), is spun at 227,000×g for 30 minutes. The pellet is resuspended in 1.0 mL of Buffer A with protease cocktail using the Pellet Pestle Motor again for 30 seconds. This sample is then spun at 12,000×g for 20 minutes. […]
(§4) Immunoblot technique: Immunoblotting was performed essentially as previously described (11). […] Image analysis was performed on scanned film digital files using Quantity One version 4.5.2 software from Bio-Rad (Hercules, Calif.). […]

SEQ ID NO. 16 (GLUT12) = test: Euglycemic insulin clamp: GLUT12 in plasma membrane-enriched (PM) fraction of vastus lateralis biopsies, quantitative immunoblot; format: in vivo, human
Protocol: as §2
Fractionation of muscle microsamples: We have made minor modifications of our previously described techniques (10). Briefly, 50 mg muscle is removed from the −80° C. freezer and slowly thawed on ice. The muscle is homogenized in 1.0 ml Buffer A (250 mM sucrose, 20 mM HEPES, pH 7.4) with 5 μL protease cocktail (Cocktail Kit Pierce #78410) added. Initial homogenization is 30 seconds with a Pellet Pestle Motor (Kontes). The homogenate is passed through a BD Falcon 100 μm Cell Strainer and after adding 100 μL Buffer B (3M KCl, 250 roM sodium pyrophosphate), is spun at 227,000×g for 30 minutes. The pellet is resuspended in 1.0 mL of Buffer A with protease cocktail using the Pellet Pestle Motor again for 30 seconds. This sample is then spun at 12,000×g for 20 minutes. The pellet is resuspended in 200 μl, Boston Bioproducts Triton Lysis Buffer with Protease Inhibitor (BP-117) using the Pellet Pestle Motor. This sample is designated PM, the plasma membrane-enriched fraction. The supernate is removed and spun at 227,000×g for 30 minutes. The resulting pellet is also resuspended in 200 μL Boston. Bioproducts Triton Lysis Buffer, and is designated LDM, the low density microsomes fraction. PM protein content averaged 139±7 μg and LDM contained 265±8 μg protein. In studies performed on human control muscle sample fractions, the PM fraction contained 80% of the immunological signal for the plasma membrane marker Na/K+ ATPase α-I (05-369 from Millipore). LDM contained 67% of the golgi marker mannosidase II (AB3712 from Chemicon).
as §4

SEQ ID NO. 10 (GLUT1) = test: Euglycemic insulin clamp: GLUT1 in plasma membrane-enriched (PM) fraction of vastus lateralis biopsies, immunoblot; format: in vivo, human
Protocol: as §2, §3, §4

In the case of “insulin: insulin given as constant euglycemic infusion at 40 mU/m2/min, or 10 ng/mL on L6 cells”, the “Translocation of GLUT4 to the PM fraction by insulin” value [1] is reported as “caused translocation; also recorded: moved from the fraction to the PM fraction”, the Plasma insulin concentration ([2]; infusion of insulin at 40 mU/m2/min, baseline 28±7 pmol/L) is reported as 343 ± 21 pmol/L and the “Mean glucose infusion rate to maintain blood glucose of 85 mg/dL” value ([2]; steady state period of the insulin infusion) is reported as 8.87 mg/kg·min. The “Translocation of GLUT12 to the PM fraction by insulin” value [3] was “translocated; also recorded: caused translocation; also recorded: moved from the fraction to the PM fraction”, the “Increase in GLUT4 in the muscle plasma membrane fractions (Zierath)” value (SEQ ID NO. 12 (GLUT4) [4]; after euglycemic insulin infusion, same infusion rate, literature ref 26) was 60% and the “Increase in sarcolemma-associated GLUT4 by confocal quantitative immunohistochemistry (Kelley)” value (SEQ ID NO. 12 (GLUT4) [4]; control subjects, literature ref 24) was 85%. For the same substance, the “Increase in GLUT4 in muscle plasma membrane-enriched fractions (Garvey)” value (SEQ ID NO. 12 (GLUT4) [4]; ten-fold higher insulin infusion, control subjects, literature ref 25) was 2.8 fold, the “GLUT4 distribution in the plasma membrane-enriched (PM) fractions” value (SEQ ID NO. 12 (GLUT4) [5]; end of 3 h insulin infusion at 40 mU/m2/min, six normal volunteers, baseline 13%) was 42% and the “Change of GLUT4 content of the PM fraction in response to insulin infusion” value (SEQ ID NO. 12 (GLUT4) [5]; insulin infusion vs baseline, each subject) was “more than doubled; also recorded: at least doubled”. For the same substance, the “GLUT12 distribution in the plasma membrane-enriched (PM) fractions” value (SEQ ID NO. 16 (GLUT12); end of 3 h insulin infusion at 40 mU/m2/min, six normal volunteers, baseline 17%) was 38%, the “Change of GLUT12 content of the PM fraction in response to insulin infusion” value (SEQ ID NO. 16 (GLUT12); insulin infusion vs baseline) was “more than doubled in four of the six subjects” and the “Minimum increase of GLUT12 content of the PM fraction” value (SEQ ID NO. 16 (GLUT12); insulin infusion vs baseline, minimum response among six subjects) was no less than 60%. For the same substance, the “Change of GLUT1 distribution/signal in LDM and PM fractions after insulin” value (SEQ ID NO. 10 (GLUT1); insulin infusion vs baseline) was “did not change; also recorded: no change” and the “GLUT1 content in the PM fractions” value (SEQ ID NO. 10 (GLUT1); post-insulin infusion, subjects 1-5, baseline 78±7%) was 79±9% and 79%.
